The values below come from patent US20070259933A1, “COMPOSITIONS, DOSAGE FORMS AND METHODS OF TREATING EMESIS” (XenoPort, Inc., priority 2006, published 2007).

The conditions of data set [1]: orally administered propofol; dose-normalized oral vs intravenous; cited from earlier work.
For data set [2] the following is noted: oral dosing, rats; cited from earlier work.
Data set [3] relates to sedation / general anesthesia. The settings on record: in vivo; cited from earlier work.
For data set [4] the following is noted: cited from earlier work.
The nature of data set [5]: Regional gastrointestinal absorption of propofol prodrug. The data set is classed as in vivo. The settings on record: oral; colon vs upper gastrointestinal tract.
Where [6] appears, read: oral dose of 5-20 mg granisetron.
[7] abbreviates: oral dose of 25-200 mg dolasetron.

Read-outs that look alike come from different tables or passages of the source.

Take `CC(C)c1cccc(C(C)C)c1O` [propofol, 2,6-diisopropylphenol]: the absolute oral bioavailability entry in data set [1] was “less than 2%”. In addition, in data set [2], the “fraction of administered drug undergoing first pass metabolism” value was “approximately 90%”. Moreover, in data set [3], the “propofol plasma concentrations needed for sedation” value is listed as 1,500-2,000 ng/mL and the “propofol plasma concentrations needed for the maintenance of general anesthesia” value is 3,000-10,000 ng/mL.
`CN1C2CCCC1CC(NC(=O)c1nn(C)c3ccccc13)C2` (stereo not shown) [granisetron]: in data set [4] (setting [6]), the AUC was 83 to 350 ng·mL/h, the maximum plasma concentration is 14 to 68 ng/mL and the terminal elimination half-life was 1.5 to 5.7 h.
For `CC(C)c1cccc(C(C)C)c1OC(=O)OC[C@H](N)C(=O)O` [(S)-2-amino-3-(2,6-diisopropylphenoxycarbonyloxy)-propanoic acid], in data set [5], the gastrointestinal absorption result is “limited colonic absorption”.
`O=C(O[C@@H]1C[C@@H]2C[C@H]3C[C@H](C1)N2CC3=O)c1c[nH]c2ccccc12` [dolasetron]: in data set [4] (setting [7]), the AUC entry is listed as “about 1,233 ng·mL·h^−1”, the oral bioavailability was 70-89% and the terminal elimination half-life is 5 to 10 h.
`CN1[C@@H]2CC[C@H]1C[C@@H](OC(=O)c1c[nH]c3ccccc13)C2` [tropisetron]: in data set [4] (oral dose of 5 mg tropisetron), the AUC result is reported as “about 230 ng·mL·h^−1”, the maximum plasma concentration entry is “about 22 ng/mL”, the oral bioavailability is 60-99% and the terminal elimination half-life was 8.6 h.
As to `Cc1nccn1CC1CCc2c(c3ccccc3n2C)C1=O` (stereo not shown) [ondansetron], in data set [4] (oral dose of 8 mg ondansetron), the AUC is 101 to 351 ng·mL/h, the maximum plasma concentration is 20 to 52 ng/mL, the oral bioavailability is recorded as 48-75% and the terminal elimination half-life was 2.5 to 6.2 h.
